Measurements: US6403647B1, “Pulsed administration of compositions for the treatment of blood disorders” (priority 1996, dated 2002)

Tested on: γ-globin expression
Test: γ-globin mRNA by RNase protection in erythroid cell cultures of normal individuals
Type: cell-based, human
Conditions: for x increase in % s / x increase: over ChFCS
Procedure: Fetal globin production was determined in erythroid progenitor cells cultured in the presence or absence of test compositions. Erythroid cells were purified from blood obtained from a normal individual . […] Erythroid cell cultures were established with the following conditions: IMDM methylcellulose media, erythropoietin (3 U/ml), the human subjects' mononuclear cells, 30% charcoal-absorbed fetal calf serum, and the test compounds at varying micromolar concentrations.
Compounds were tested for their ability to induce expression of fetal globin expression in erythroid cell cultures established from the peripheral blood of normal individuals. Colonies were harvested and assayed for globin mRNA following 14 days of culture. Each compound was tested in duplicate cultures from 2-4 individual human subjects. Globin expression was quantitated by RNase protection assay for % gamma globin as a fraction of total non-alpha globin (% gamma/gamma+beta globin mRNA).

O=C(CCCCCCC(=O)NO)NO [suberoyl bis hydroxamic acid, Suberoyl bis hydroxamic acid]
x increase in % s (0.5 μM, group 1 (99-3a, 99-3b)): 1.6 x
γ/γ + β (0.5 μM, group 1, subject 99-3a): 13.54%
γ/γ + β (0.5 μM, group 1, subject 99-3b): 11.55%
γ/γ + β mean (0.5 μM, group 1, subjects 99-3a, 99-3b): 12.55%
x increase in % s (0.5 μM, group 2 (99-4, 99-5)): 0.9 x
γ/γ + β (0.5 μM, group 2, subject 99-4): 6.25%
γ/γ + β (0.5 μM, group 2, subject 99-5): 6.42%
γ/γ + β mean (0.5 μM, group 2, subjects 99-4, 99-5): 6.34%
x increase in % s (1 μM, group 1 (99-3a, 99-3b)): 1.3 x
γ/γ + β (1 μM, group 1, subject 99-3a): 10.99%
γ/γ + β (1 μM, group 1, subject 99-3b): 9.19%
γ/γ + β mean (1 μM, group 1, subjects 99-3a, 99-3b): 10.09%
x increase in % s (1 μM, group 2 (99-4, 99-5)): 1.2 x
γ/γ + β (1 μM, group 2, subject 99-4): 8.46%
γ/γ + β mean (1 μM, group 2, subject 99-4 only): 8.46%
x increase in % s (1 μM, group 3 (99-6, 99-7, 99-10)): 1.5 x
γ/γ + β (1 μM, group 3, subject 99-6): 5.41%
γ/γ + β (1 μM, group 3, subject 99-7): 10.76%
γ/γ + β (1 μM, group 3, subject 99-10): 6.92%
γ/γ + β mean (1 μM, group 3, subjects 99-6, 99-7, 99-10): 7.70%
x increase in % s (2 μM, group 1 (99-3a, 99-3b)): 2.9 x
γ/γ + β (2 μM, group 1, subject 99-3a): 21.36%
γ/γ + β (2 μM, group 1, subject 99-3b): 23.63%
γ/γ + β mean (2 μM, group 1, subjects 99-3a, 99-3b): 22.50%
x increase in % s (2 μM, group 2 (99-4, 99-5)): 1.5 x
γ/γ + β (2 μM, group 2, subject 99-4): 9.92%
γ/γ + β (2 μM, group 2, subject 99-5): 10.65%
γ/γ + β mean (2 μM, group 2, subjects 99-4, 99-5): 10.29%
x increase in % s (2 μM, group 3 (99-6, 99-7, 99-10)): 2.1 x
γ/γ + β (2 μM, group 3, subject 99-6): 6.65%
γ/γ + β (2 μM, group 3, subject 99-7): 15.75%
γ/γ + β (2 μM, group 3, subject 99-10): 10.00%
γ/γ + β mean (2 μM, group 3, subjects 99-6, 99-7, 99-10): 10.80%
x increase in % s (3 μM, group 1 (99-3a, 99-3b)): 3.2 x
γ/γ + β (3 μM, group 1, subject 99-3a): 24.90%
γ/γ + β (3 μM, group 1, subject 99-3b): 23.72%
γ/γ + β mean (3 μM, group 1, subjects 99-3a, 99-3b): 24.31%
x increase in % s (3 μM, group 2 (99-4, 99-5)): 2.6 x
γ/γ + β (3 μM, group 2, subject 99-4): 17.99%
γ/γ + β (3 μM, group 2, subject 99-5): 17.89%
γ/γ + β mean (3 μM, group 2, subjects 99-4, 99-5): 17.94%
x increase in % s (4 μM, group 1 (99-3a, 99-3b)): 6.4 x
γ/γ + β (4 μM, group 1, subject 99-3a): 48.57%
γ/γ + β (4 μM, group 1, subject 99-3b): 50.66%
γ/γ + β mean (4 μM, group 1, subjects 99-3a, 99-3b): 49.62%
x increase in % s (4 μM, group 2 (99-4, 99-5)): 3.4 x
γ/γ + β (4 μM, group 2, subject 99-4): 24.10%
γ/γ + β mean (4 μM, group 2, subject 99-4 only): 24.10%
x increase in % s (4 μM, group 3 (99-6, 99-7, 99-10)): 3.9 x
γ/γ + β (4 μM, group 3, subject 99-6): 13.33%
γ/γ + β (4 μM, group 3, subject 99-7): 30.45%
γ/γ + β (4 μM, group 3, subject 99-10): 15.73%
γ/γ + β mean (4 μM, group 3, subjects 99-6, 99-7, 99-10): 19.84%
x increase in % s (4 μM, group 4 (99-10, 00-1, 00-3)): 1.7 x
γ/γ + β (4 μM, group 4, subject 00-1): 4.82%
γ/γ + β (4 μM, group 4, subject 00-3): 5.01%
γ/γ + β (4 μM, group 4, subject 99-10): 11.38%
γ/γ + β mean (4 μM, group 4, subjects 99-10, 00-1, 00-3): 7.07%
x increase in % s (6 μM, group 3 (99-6, 99-7, 99-10)): 5.5 x
γ/γ + β (6 μM, group 3, subject 99-6): 22.97%
γ/γ + β (6 μM, group 3, subject 99-7): 31.51%
γ/γ + β (6 μM, group 3, subject 99-10): 29.15%
γ/γ + β mean (6 μM, group 3, subjects 99-6, 99-7, 99-10): 27.88%
x increase in % s (6 μM, group 4 (99-10, 00-1, 00-3)): 2.7 x
γ/γ + β (6 μM, group 4, subject 00-1): 9.46%
γ/γ + β (6 μM, group 4, subject 00-3): 8.89%
γ/γ + β (6 μM, group 4, subject 99-10): 16.34%
γ/γ + β mean (6 μM, group 4, subjects 99-10, 00-1, 00-3): 11.56%
x increase in % s (8 μM, group 3 (99-6, 99-7, 99-10)): 7.4 x
γ/γ + β (8 μM, group 3, subject 99-6): 31.99%
γ/γ + β (8 μM, group 3, subject 99-7): 44.02%
γ/γ + β (8 μM, group 3, subject 99-10): 35.73%
γ/γ + β mean (8 μM, group 3, subjects 99-6, 99-7, 99-10): 37.25%
x increase in % s (8 μM, group 4 (99-10, 00-1, 00-3)): 4.4 x
γ/γ + β (8 μM, group 4, subject 00-1): 12.88%
γ/γ + β (8 μM, group 4, subject 00-3): 21.68%
γ/γ + β (8 μM, group 4, subject 99-10): 21.37%
γ/γ + β mean (8 μM, group 4, subjects 99-10, 00-1, 00-3): 18.64%
x increase in % s (10 μM, group 4 (99-10, 00-1, 00-3)): 7.3 x
γ/γ + β (10 μM, group 4, subject 00-1): 27.89%
γ/γ + β (10 μM, group 4, subject 00-3): 31.25%
γ/γ + β (10 μM, group 4, subject 99-10): 35.06%
γ/γ + β mean (10 μM, group 4, subjects 99-10, 00-1, 00-3): 31.40%
x increase in % s (12 μM, group 4 (99-10, 00-1, 00-3)): 10.8 x
γ/γ + β (12 μM, group 4, subject 00-3): 45.69%
γ/γ + β (12 μM, group 4, subject 99-10): 46.94%
γ/γ + β mean (12 μM, group 4, subjects 99-10, 00-3): 46.32%

CCCC(=O)NO [butyryl hydroxamate]
x increase (6 μM, group 1 (99-4, 99-5)): 1.0 x
γ/γ + β (6 μM, group 1, subject 99-4): 2.29%
γ/γ + β (6 μM, group 1, subject 99-5): 3.40%
γ/γ + β mean (6 μM, group 1, subjects 99-4, 99-5): 2.85%
x increase (10 μM, group 1 (99-4, 99-5)): 1.3 x
γ/γ + β (10 μM, group 1, subject 99-4): 3.44%
γ/γ + β (10 μM, group 1, subject 99-5): 4.06%
γ/γ + β mean (10 μM, group 1, subjects 99-4, 99-5): 3.75%
x increase (20 μM, group 1 (99-4, 99-5)): 1.9 x
γ/γ + β (20 μM, group 1, subject 99-4): 4.43%
γ/γ + β (20 μM, group 1, subject 99-5): 6.06%
γ/γ + β mean (20 μM, group 1, subjects 99-4, 99-5): 6.25%
x increase (20 μM, group 2 (99-6, 99-7)): 1.0 x
γ/γ + β (20 μM, group 2, subject 99-6): 8.65%
γ/γ + β (20 μM, group 2, subject 99-7): 12.49%
γ/γ + β mean (20 μM, group 2, subjects 99-6, 99-7): 10.57%
x increase (30 μM, group 1 (99-4, 99-5)): 1.7 x
γ/γ + β (30 μM, group 1, subject 99-4): 4.12%
γ/γ + β (30 μM, group 1, subject 99-5): 5.35%
γ/γ + β mean (30 μM, group 1, subjects 99-4, 99-5): 4.74%
x increase (40 μM, group 1 (99-4, 99-5)): 2.8 x
γ/γ + β (40 μM, group 1, subject 99-5): 7.72%
γ/γ + β mean (40 μM, group 1, subject 99-5 only): 7.72%
x increase (40 μM, group 2 (99-6, 99-7)): 1.5 x
γ/γ + β (40 μM, group 2, subject 99-6): 14.81%
γ/γ + β (40 μM, group 2, subject 99-7): 17.39%
γ/γ + β mean (40 μM, group 2, subjects 99-6, 99-7): 16.10%
x increase (60 μM, group 2 (99-6, 99-7)): 4.1 x
γ/γ + β (60 μM, group 2, subject 99-6): 37.65%
γ/γ + β (60 μM, group 2, subject 99-7): 51.04%
γ/γ + β mean (60 μM, group 2, subjects 99-6, 99-7): 44.35%
x increase (80 μM, group 2 (99-6, 99-7)): 4.7 x
γ/γ + β (80 μM, group 2, subject 99-6): 44.98%
γ/γ + β (80 μM, group 2, subject 99-7): 55.39%
γ/γ + β mean (80 μM, group 2, subjects 99-6, 99-7): 50.19%
x increase (100 μM, group 2 (99-6, 99-7)): 5.3 x
γ/γ + β (100 μM, group 2, subject 99-6): 54.06%
γ/γ + β (100 μM, group 2, subject 99-7): 60.90%
γ/γ + β mean (100 μM, group 2, subjects 99-6, 99-7): 57.48%
